Source: patent publication US7176316B2, “Amino-piperidine derivatives” (Hoffmann-La Roche Inc., priority 2003, dated 2007)
pIC50: −log10 of the molar value.

Target: T1, hGlyT-1b (Homo sapiens, UniProt P48067)
T1 sequence (P48067 1-652 isoform P48067-3): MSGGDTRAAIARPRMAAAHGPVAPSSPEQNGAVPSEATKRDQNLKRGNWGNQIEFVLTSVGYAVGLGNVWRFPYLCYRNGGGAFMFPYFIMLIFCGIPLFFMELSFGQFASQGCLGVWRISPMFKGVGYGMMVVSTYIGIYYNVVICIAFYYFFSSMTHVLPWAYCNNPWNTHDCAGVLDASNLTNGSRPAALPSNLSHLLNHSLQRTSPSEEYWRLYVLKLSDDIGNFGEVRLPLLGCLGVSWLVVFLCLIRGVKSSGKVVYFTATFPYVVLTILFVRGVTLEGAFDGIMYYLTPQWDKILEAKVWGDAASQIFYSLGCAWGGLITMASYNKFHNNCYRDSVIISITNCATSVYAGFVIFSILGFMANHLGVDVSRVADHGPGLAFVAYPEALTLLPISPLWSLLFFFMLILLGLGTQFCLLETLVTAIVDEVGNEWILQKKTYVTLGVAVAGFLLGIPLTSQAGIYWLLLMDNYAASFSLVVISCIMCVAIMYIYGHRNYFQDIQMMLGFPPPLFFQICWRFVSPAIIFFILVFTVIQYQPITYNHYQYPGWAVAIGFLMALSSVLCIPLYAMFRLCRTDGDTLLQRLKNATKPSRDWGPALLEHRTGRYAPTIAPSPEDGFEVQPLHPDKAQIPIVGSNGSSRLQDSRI
Test: Glycine uptake inhibition assay (hGlyT-1b), [3H]-glycine uptake in transfected CHO cells
Settings: not given

Row | Compound | pIC50
1 | COc1ccc(S(=O)(=O)N(c2ccccc2)C2CCN([C@@H]3CCCC[C@@]3(O)c3cccnc3)CC2)cc1 (racemic) [Example 110, (+/−)-N-[cis-1-(2-Hydroxy-2-pyridin-3-yl-cyclohexyl)-piperidin-4-yl]-4-methoxy-N-phenyl-benzenesulfonamide] | 7.12
2 | COc1ccc(S(=O)(=O)N(c2ccc(Cl)cc2)C2CCN([C@@H]3CCCC[C@@]3(O)c3cccnc3)CC2)cc1 (racemic) [Example 105, (+/−)-N-(4-Chloro-phenyl)-N-[cis-1-(2-hydroxy-2-pyridin-3-yl-cyclohexyl)-piperidin-4-yl]-4-methoxy-benzenesulfonamide] | 7.08
3 | COc1ccc(S(=O)(=O)N(c2cccc(OC)c2)C2CCN([C@@H]3CCCC[C@@]3(O)c3ccc(F)cc3)CC2)cc1 (racemic) [Example 125, (+/−)-N-{cis-1-[2-(4-Fluoro-phenyl)-2-hydroxy-cyclohexyl]-piperidin-4-yl}-4-methoxy-N-(3-methoxy-phenyl)-benzenesulfonamide] | 7.02
4 | COc1ccc(S(=O)(=O)N(c2ccccc2)C2CCN([C@@H]3CCCC[C@@]3(O)c3ccc(F)cc3)CC2)cc1 (racemic) [Example 108, (+/−)-N-{cis-1-[2-(4-Fluoro-phenyl)-2-hydroxy-cyclohexyl]-piperidin-4-yl}-4-methoxy-N-phenyl-benzenesulfonamide] | 7.40
5 | COc1ccc(S(=O)(=O)N(c2cccc(C(F)(F)F)c2)C2CCN([C@@H]3CCCC[C@@]3(O)c3cccnc3)CC2)cc1 (racemic) [Example 121, (+/−)-N-[cis-1-(2-Hydroxy-2-pyridin-3-yl-cyclohexyl)-piperidin-4-yl]-4-methoxy-N-(3-trifluoromethyl-phenyl)-benzenesulfonamide] | 7.15
6 | COc1ccc(S(=O)(=O)N(c2ccc(F)cc2)C2CCN([C@@H]3CCCC[C@@]3(O)c3ccncc3)CC2)cc1 (racemic) [Example 115, (+/−)-N-(4-Fluoro-phenyl)-N-[cis-1-(2-hydroxy-2-pyridin-4-yl-cyclohexyl)-piperidin-4-yl]-4-methoxy-benzenesulfonamide] | 7.15
7 | COc1ccc(S(=O)(=O)N(c2ccccc2)C2CCN([C@@H]3CCCC[C@@]3(O)c3ccccc3C)CC2)cc1 (racemic) [Example 111, (+/−)-N-[cis-1-(2-Hydroxy-2-o-tolyl-cyclohexyl)-piperidin-4-yl]-4-methoxy-N-phenyl-benzenesulfonamide] | 7.17
8 | COc1ccc(S(=O)(=O)N(c2ccc(F)cc2)C2CCN([C@@H]3CCCC[C@@H]3c3ccccc3)CC2)cc1 (racemic) [Example 69, (+/−)-N-(4-Fluoro-phenyl)-4-methoxy-N-[cis-1-(2-phenyl-cyclohexyl)-piperidin-4-yl]-benzenesulfonamide] | 7.54
9 | COc1ccc(S(=O)(=O)N(c2ccc(Cl)cc2)C2CCN([C@@H]3CCCC[C@@]3(O)c3ccccc3)CC2)cc1 (racemic) [Example 102, (+/−)-N-(4-Chloro-phenyl)-N-[cis-1-(2-Hydroxy-2-phenyl-cyclohexyl)-piperidin-4-yl]-4-methoxy-benzenesulfonamide] | 7.04
10 | COc1ccc(S(=O)(=O)N(c2ccccc2)C2CCN([C@@H]3CCCC[C@@]3(O)c3ccncc3)CC2)cc1 (racemic) [Example 109, (+/−)-N-[cis-1-(2-Hydroxy-2-pyridin-4-yl-cyclohexyl)-piperidin-4-yl]-4-methoxy-N-phenyl-benzenesulfonamide] | 7.14
11 | COc1ccc(S(=O)(=O)N(c2ccccc2)C2CCN([C@@H]3CCCC[C@]3(O)c3ccccc3)CC2)cc1 (racemic) [Example 159, (+/−)-N-[trans-1-(2-Hydroxy-2-phenyl-cyclohexyl)-piperidin-4-yl]-4-methoxy-N-phenyl-benzenesulfonamide] | 7.17
12 | COc1ccc(S(=O)(=O)N(c2cccc(C(F)(F)F)c2)C2CCN([C@@H]3CCCC[C@@H]3c3ccccc3)CC2)cc1 (racemic) [Example 75, (+/−)-4-Methoxy-N-[cis-1-(2-phenyl-cyclohexyl)-piperidin-4-yl]-N-(3-trifluoromethyl-phenyl)-benzenesulfonamide] | 7.17
13 | COc1ccc(S(=O)(=O)N(c2cccc(C(F)(F)F)c2)C2CCN([C@@H]3CCCC[C@@]3(O)c3ccncc3)CC2)cc1 (racemic) [Example 120, (+/−)-N-[cis-1-(2-Hydroxy-2-pyridin-4-yl-cyclohexyl)-piperidin-4-yl]-4-methoxy-N-(3-trifluoromethyl-phenyl)-benzenesulfonamide] | 7.04
14 | COc1ccc(S(=O)(=O)N(c2ccccc2)C2CCN([C@@H]3CCCC[C@@]3(O)c3ccccc3)CC2)cc1 [Example 100, (+)-N-[cis-1-(2-Hydroxy-2-phenyl-cyclohexyl)-piperidin-4-yl]-4-methoxy-N-phenyl-benzenesulfonamide] | 7.82
15 | COc1ccc(S(=O)(=O)N(c2ccccc2)C2CCN([C@@H]3CCCC[C@@H]3c3ccccc3)CC2)cc1 (racemic) [Example 11, (+/−)-4-Methoxy-N-phenyl-N-[cis-1-(2-phenyl-cyclohexyl)-piperidin-4-yl]-benzenesulfonamide] | 7.25
16 | O=S(=O)(c1ccc(Cl)c(Cl)c1)N(c1ccccc1)C1CCN([C@@H]2CCCC[C@@H]2c2ccccc2)CC1 (racemic) [Example 1, (+/−)-3,4-Dichloro-N-phenyl-N-[cis-1-(2-phenyl-cyclohexyl)-piperidin-4-yl]-benzenesulfonamide] | 7.32
17 | COc1ccc(S(=O)(=O)N(c2ccccc2)C2CCN([C@@H]3CCCC[C@@]3(O)c3ccc(Cl)cc3)CC2)cc1 (racemic) [Example 107, (+/−)-N-{cis-1-[2-(4-Chloro-phenyl)-2-hydroxy-cyclohexyl]-piperidin-4-yl}-4-methoxy-N-phenyl-benzenesulfonamide] | 7.08
18 | COc1ccc(S(=O)(=O)N(c2cccc(OC)c2)C2CCN([C@@H]3CCCC[C@@]3(O)c3ccccc3)CC2)cc1 (racemic) [Example 123, (+/−)-N-[cis-1-(2-Hydroxy-2-phenyl-cyclohexyl)-piperidin-4-yl]-4-methoxy-N-(3-methoxy-phenyl)-benzenesulfonamide] | 7.02
19 | COc1ccc(S(=O)(=O)N(c2ccccc2)C2CCN([C@@H]3CCCC[C@@]3(O)c3ccccc3)CC2)cc1 (racemic) [Example 99, (+/−)-N-[cis-1-(2-Hydroxy-2-phenyl-cyclohexyl)-piperidin-4-yl]-4-methoxy-N-phenyl-benzenesulfonamide] | 7.55
20 | COc1ccc(S(=O)(=O)N(c2ccc(F)cc2)C2CCN([C@@H]3CCCC[C@@]3(O)c3ccccc3)CC2)cc1 (racemic) [Example 112, (+/−)-N-(4-Fluoro-phenyl)-N-[cis-1-(2-Hydroxy-2-phenyl-cyclohexyl)-piperidin-4-yl]-4-methoxy-benzenesulfonamide] | 7.21
21 | COc1ccc(S(=O)(=O)N(c2ccc(F)cc2)C2CCN([C@@H]3COCC[C@@]3(O)c3ccccc3)CC2)cc1 (racemic) [Example 163, (+/−)-N-(4-Fluoro-phenyl)-N-[cis-1-(4-hydroxy-4-phenyl-tetrahydro-pyran-3-yl)-piperidin-4-yl]-4-methoxy-benzenesulfonamide] | 7.07
22 | Cc1ccc(S(=O)(=O)N(c2ccc(F)cc2)C2CCN([C@@H]3CCCC[C@@H]3c3ccccc3)CC2)cc1 (racemic) [Example 67, (+/−)-N-(4-Fluoro-phenyl)-4-methyl-N-[cis-1-(2-phenyl-cyclohexyl)-piperidin-4-yl]-benzenesulfonamide] | 7.00
23 | COc1ccc(S(=O)(=O)N(c2ccc(F)cc2)C2CCN([C@@H]3CCCC[C@@]3(O)c3ccc(F)cc3)CC2)cc1 (racemic) [Example 114, (+/−)-N-(4-Fluoro-phenyl)-N-{cis-1-[2-(4-fluoro-phenyl)-2-hydroxy-cyclohexyl]-piperidin-4-yl}-4-methoxy-benzenesulfonamide] | 7.18
24 | COc1ccc(S(=O)(=O)N(c2cccc(OC)c2)C2CCN([C@@H]3CCCC[C@@H]3c3ccccc3)CC2)cc1 (racemic) [Example 3, (+/−)-4-Methoxy-N-(3-methoxy-phenyl)-N-[cis-1-(2-phenyl-cyclohexyl)-piperidin-4-yl]-benzenesulfonamide] | 7.03

Same assay, conditions: read-out: IC50 (μM) at GlyT-1

Row | Compound | IC50 [µM]
25 | (+)-4-Methoxy-N-phenyl-N-[cis-1-(2-phenyl-cyclohexyl)-piperidin-4-yl]-benzenesulfonamide [Example 96] | 0.049
